# Laboratory results reported in article PMC6946680, “Modulation of brain cation-Cl^− cotransport via the SPAK kinase inhibitor ZT-1a” (Nature Communications, 2020).
# Values joined by “and” are separate entries in the source; they are usually repeats but may differ in a detail not shown here. Identical values can stand only once. “Also recorded” adds a separate entry of the source.
# Tests used:
# [1] = test system: pGSK-3α/β; test: Immunoblot of phospho-GSK-3α/β in ischemic mouse brain; format: in vivo; conditions: for pGSK-3αβ/GAPDH (fold veh-CL): Cytosol; for pGSK-3αβ/GAPDH (fold veh-CL) / pGSK-3αβ/Na K pump (fold veh-CL): Fig S4d; for pGSK-3αβ/Na K pump (fold veh-CL): Membrane
# Excerpt: (§1) Cytosol and crude membrane protein
# (§2) Expressions of Na+-K+ ATPase
# (§3) respectively. d Densitometric analyses of immunoblots.
# [2] = test system: regional cerebral blood flow; test: Regional cerebral blood flow by laser speckle contrast imaging after tMCAO; format: in vivo, mouse; conditions: for % CBF: single mice
# Description: Regional cerebral blood flow was measured using a two-dimensional laser speckle contrast analysis system (PeriCam PSI High Resolution with PIMSoft, Perimed)[65]. Isoflurane-anesthetized mice were head-fixed using stereotaxic equipment during imaging. The skin was retracted to expose the intact skull. Images were taken at 19 frames/second with averaging. Average signal intensity was taken from fixed-size (0.5-mm^2) regions of interest drawn over the parietal bone plate on the ipsi (IL)- and contralateral (CL) sides. Percent perfusion values were taken in comparison with the mean values of the pre-ischemic ipsilateral side. Five consecutive images at each time period per animal were averaged for analysis. […]
# cerebral blood flow (rCBF) in ischemic mice. a and d Representative two-dimensional laser speckle contrast images of rCBF. Vehicle (DMSO), ZT-1a (A, 2.5 mg/kg), or Closantel (D, 1.25 mg/kg, i.p.) was administered i.p. at 3 hr and again at 8 hr post-reperfusion after MCAO. Pseudocolor scale bar indicates relative signal intensity. b and e No changes of rCBF were detected in the non-ischemic […]
# contralateral (CL) hemispheres of vehicle-control or ZT-1a-treated (b) or Closantel-treated mice (e).
# Data are mean ± SD, n = 3. c and f Similar reductions and recoveries of rCBF in the ischemic ipsilateral hemispheres (IL) were detected in the ZT-1a-treated (c) or Closantel-treated ischemic mice (f), and neither differed from vehicle-injected mice. Data are mean ± SEM, n = 3.
# [3] = ZT-1a content in plasma and brain of sham and tMCAO mice (LC-MS/MS); format: in vivo, mouse; conditions: for plasma ZT-1a concentration: Fig 6e; for plasma ZT-1a concentration / Brain tissue ZT-1a concentration: individual animals; for Brain tissue ZT-1a concentration: Fig 6f
# [4] = test system: pJNK; test: Immunoblot of phospho-JNK in ischemic mouse brain; format: in vivo; conditions: Fig S4d
# Excerpt: as §1, §2, §3
structure (smiles),measurement,setting,value
"Cc1cc(C(C#N)c2ccc(Cl)cc2)c(Cl)cc1NC(=O)c1cc(Cl)ccc1O (centres unmarked) [ZT-1a, 5-chloro-N-(5-chloro-4-((4-chlorophenyl)(cyano)methyl)-2-methylphenyl)-2-hydroxybenzamide]",pGSK-3αβ/GAPDH (fold veh-CL),[1]; CL,1.03 fold veh-CL and 0.85 fold veh-CL and 1.10 fold veh-CL
same,pGSK-3αβ/GAPDH (fold veh-CL),[1]; IL,1.40 fold veh-CL and 1.29 fold veh-CL and 1.07 fold veh-CL
same,pGSK-3αβ/Na K pump (fold veh-CL),[1]; CL,1.04 fold veh-CL and 0.96 fold veh-CL and 1.12 fold veh-CL
same,pGSK-3αβ/Na K pump (fold veh-CL),[1]; IL,0.94 fold veh-CL and 0.88 fold veh-CL and 0.90 fold veh-CL
same,GSK-3β (p-GSK-3alpha/beta) phosphorylation in ischemic brain,"[1]; ZT-1a-treated ischemic mouse brain, 5.0 mg/kg i.p., 24 h post reperfusion, 5 mg/kg",not inhibited; also recorded: no marked inhibition
same,% CBF,"[2]; Fig S10b/S10e, Pre",100%
same,% CBF,"[2]; Fig S10b/S10e, Reperfusion 10 min",99% and 109% and 96%
same,% CBF,"[2]; Fig S10b/S10e, Reperfusion 20 min",87% and 110% and 86%
same,% CBF,"[2]; Fig S10b/S10e, Reperfusion 3 h",120% and 108% and 100%
same,% CBF,"[2]; Fig S10b/S10e, Reperfusion 4 h",119% and 117% and 112%
same,% CBF,"[2]; Fig S10b/S10e, Reperfusion 24 h",106% and 104% and 114%
same,% CBF,"[2]; Fig S10b/S10e, mcao 10 min",78% and 99% and 105%
same,% CBF,"[2]; Fig S10b/S10e, mcao 20min",76% and 107% and 98%
same,% CBF,"[2]; Fig S10b/S10e, mcao 50 min",104% and 96%
same,% CBF,"[2]; Fig S10c/S10f, Pre",100%
same,% CBF,"[2]; Fig S10c/S10f, Reperfusion 10 min",70% and 72% and 78%
same,% CBF,"[2]; Fig S10c/S10f, Reperfusion 20 min",75% and 66% and 82%
same,% CBF,"[2]; Fig S10c/S10f, Reperfusion 3 h",84% and 102% and 81%
same,% CBF,"[2]; Fig S10c/S10f, Reperfusion 4 h",75% and 87% and 86%
same,% CBF,"[2]; Fig S10c/S10f, Reperfusion 24 h",83% and 101% and 109%
same,% CBF,"[2]; Fig S10c/S10f, mcao 10 min",35% and 30% and 25%
same,% CBF,"[2]; Fig S10c/S10f, mcao 20min",32% and 31% and 24%
same,% CBF,"[2]; Fig S10c/S10f, mcao 50 min",30% and 27% and 22%
same,regional cerebral blood flow (rCBF),"[2]; within the 24-h post-stroke period, ischemic mice",does not affect regional cerebral blood flow; also recorded: unaffected
same,ZT-1a concentration in CL and IL hemispheres of ischemic brains relative to sham brains,[3]; 2 h after 5 mg/kg i.p.,~ 1.8 fold
same,plasma ZT-1a levels in ischemic versus non-ischemic sham mice,[3]; 2 h after 5 mg/kg i.p.,indistinguishable
same,plasma ZT-1a concentration,[3]; Sham mice,329.00 ng/mL and 282.00 ng/mL and 324.00 ng/mL and 520.00 ng/mL and 751.00 ng/mL and 743.08 ng/mL and 457.88 ng/mL and 359.25 ng/mL and 143.14 ng/mL and 588.55 ng/mL and 379.00 ng/mL
same,plasma ZT-1a concentration,[3]; tMCAO mice,1494.00 ng/mL and 655.00 ng/mL and 82.00 ng/mL and 678.79 ng/mL and 587.05 ng/mL and 302.56 ng/mL and 827.38 ng/mL and 531.10 ng/mL and 662.00 ng/mL
same,Brain tissue ZT-1a concentration,"[3]; sham, CL hemisphere",221.00 ng/gm tissue and 107.00 ng/gm tissue and 97.00 ng/gm tissue and 50.00 ng/gm tissue and 133.00 ng/gm tissue and 120.00 ng/gm tissue and 67.00 ng/gm tissue and 61.00 ng/gm tissue and 77.00 ng/gm tissue and 131.00 ng/gm tissue
same,Brain tissue ZT-1a concentration,"[3]; sham, IL hemisphere",174.00 ng/gm tissue and 130.00 ng/gm tissue and 100.00 ng/gm tissue and 155.00 ng/gm tissue and 76.00 ng/gm tissue and 115.00 ng/gm tissue and 89.00 ng/gm tissue and 78.00 ng/gm tissue and 59.00 ng/gm tissue and 139.00 ng/gm tissue
same,Brain tissue ZT-1a concentration,"[3]; tMCAO, CL hemisphere",161.00 ng/gm tissue and 118.00 ng/gm tissue and 139.00 ng/gm tissue and 285.00 ng/gm tissue and 269.00 ng/gm tissue and 132.00 ng/gm tissue and 326.00 ng/gm tissue and 170.00 ng/gm tissue and 163.00 ng/gm tissue and 133.00 ng/gm tissue and 245.00 ng/gm tissue
same,Brain tissue ZT-1a concentration,"[3]; tMCAO, IL hemisphere",217.00 ng/gm tissue and 131.00 ng/gm tissue and 171.00 ng/gm tissue and 369.00 ng/gm tissue and 215.00 ng/gm tissue and 238.00 ng/gm tissue and 154.00 ng/gm tissue and 150.00 ng/gm tissue and 199.00 ng/gm tissue
same,penetration across the healthy BBB,[3]; normal naive mice,minimal
same,pJNK/GAPDH (fold veh-CL),"[4]; Cytosol, CL",1.00 fold veh-CL and 1.48 fold veh-CL and 0.87 fold veh-CL and 0.76 fold veh-CL
same,pJNK/Na K pump (fold veh-CL),"[4]; Membrane, IL",2.05 fold veh-CL and 1.64 fold veh-CL and 1.81 fold veh-CL and 1.40 fold veh-CL
